# Experimental data reported in patent US20230181611A1, “REELIN/VEGF-C PRODUCTION/ACTIVATION PROMOTER AND SKIN EXTERNAL COMPOSITION USING THE SAME” (AMOREPACIFIC CORPORATION, priority 2021, published 2023).
# Assays:
# [1] = system: Human dermal lymphatic endothelial cells (HDLEC); assay: Cytotoxicity analysis (WST-8 cell viability); type: cell-based; conditions: 0 to 200 ppm (μg/ml), 24 hours and 72 hours, FIG. 1
# Protocol: Human dermal lymphatic endothelial cells (HDLEC, PromoCell, Germany) were newly cultured in 96 well dishes for one day and then treated with a compound represented by Chemical Formula E-1 (Biogenics Company) at each concentration of 0 ppm (μg/ml) to 200 ppm (μg/ml). The cells were cultured for 24 hours and 72 hours, and then measured with respect to absorbance at 450 nm by using a QuantiMax WST-8 Cell viability assay kit to check cell viability, and the results are shown in FIG. 1.
# [2] = system: reelin; assay: Reelin cytokine analysis (ELISA); type: cell-based, human; conditions: HDLEC, 10 ppm, 48 hours, DMSO control = 100%, FIG. 2
# Protocol: After culturing human dermal lymphatic endothelial cells in 6 well plates for 24 hours, while the cells treated with DMSO were used as a control (reference, 100%), the cells were treated with the compound represented by Chemical Formula E-1 at a concentration of 10 ppm and cultured for 48 hours and then measured with respect to production and activity of reelin through a reelin cytokine analysis by using human ELISA Kit (Mybiosource, U.S.A.) according to a manual, and the results are shown in FIG. 2.
# [3] = system: VEGF-C; assay: VEGF-C cytokine analysis (ELISA); type: cell-based, human; conditions: HDLEC, 1 ppm and 10 ppm, 48 hours, DMSO control = 100%, FIG. 3
# Protocol: After culturing human dermal lymphatic endothelial cells in 6 well plates for 24 hours, while the cells treated with DMSO as a control (reference, 100%), the cells were treated with the compound represented by Chemical Formula E-1 at each concentration of 1 ppm and 10 ppm and cultured for 48 hours and then measured with respect to production and activity of VEGF-C through a VEGF-C cytokine analysis by using a VEGFC human ELISA Kit (ThermoFisher, U.S.A.) according to a manual, and the results are shown in FIG. 3.
structure (smiles),measurement,setting,value
CC1(C)[C@@H](O[C@H]2OC(C(=O)O)[C@@H](O)C(O)C2O[C@@H]2OC(C(=O)O)[C@@H](O)C(O)C2O)CC[C@]2(C)[C@H]3C(=O)C=C4[C@@H]5C[C@@](C)(C(=O)O)CC[C@]5(C)CC[C@@]4(C)[C@]3(C)CC[C@@H]12 (stereo partly drawn) [Chemical Formula E-1],cytotoxicity (cell viability),[1],no cytotoxicity
same,production and activity of reelin compared with the control,[2],further improve production and activity of reelin
same,production and activity of VEGF-C compared with the control,[3],further improve production and activity of VEGF-C
